Results published in ChEMBL document CHEMBL4665886, “Assessing different thiazolidine and thiazole based compounds as antileishmanial scaffolds” (Bioorg Med Chem Lett, 2020).
pIC50: −log10 of the molar value.

Tests used:
[1] = test system: Trypanosoma brucei gambiense; assay: Antitrypanosomal activity against bloodstream form of Trypanosoma brucei gambiense Feo assessed as reduction in parasite growth; type: functional, organism-based
MRC5 = assay: Cytotoxicity against human MRC5 cells after 24 hrs by redox-sensitive dye based fluorescent assay; type: cell-based; conditions: MRC5, 24 h
[2] = test system: Trypanosoma brucei brucei; assay: Antitrypanosomal activity against bloodstream form of Trypanosoma brucei brucei 90-13 assessed as reduction in parasite growth; type: functional, organism-based
BJ = assay: Cytotoxicity against human BJ cells after 24 hrs by redox-sensitive dye based fluorescent assay; type: cell-based
Leishmania major = assay: Antileishmanial activity against Leishmania major FV1 assessed as reduction in parasite growth; type: functional, organism-based
[3] = Therapeutic index, ratio of average IC50 for human MRC5 and BJ cells to IC50 for antileishmanial activity against Leishmania major; type: toxicity; conditions: MRC5 and BJ cells (average IC50) versus Leishmania major, read-out: TI

Compound `C=CCN1C(=O)C(CC(=O)c2ccc(F)cc2)S/C1=N\N=C\c1ccccc1` (stereo not given) has a pIC50 [1] of less than 4.30, a pIC50 (MRC5) of 4.70 and a pIC50 [2] of less than 4.30. The pIC50 (BJ) was 4.67, the pIC50 (Leishmania major) was 4.32 and the selectivity ratio [3] was 0.45.

`CCC1S/C(=N\N=C\c2c(-c3ccc(Cl)cc3)[nH]c3ccccc23)NC1=O` (stereo not given) showed a pIC50 (MRC5) of 5.06, a pIC50 (BJ) of 5.13 and a pIC50 (Leishmania major) of 4.64. The selectivity ratio [3] was 0.36.

Work on `O=C(CC1S/C(=N\N=C\c2c(-c3ccccc3)[nH]c3ccccc23)NC1=O)c1ccccc1` (stereo not given) yielded a pIC50 (MRC5) of less than 4.30, a pIC50 (BJ) of less than 4.30 and a pIC50 (Leishmania major) of 5.04. For the same compound, the selectivity ratio [3] was greater than 5.47.

Work on `CCOC(=O)c1sc(N/N=C/c2c(-c3ccc([N+](=O)[O-])cc3)[nH]c3ccccc23)nc1C` yielded a pIC50 (MRC5) of 4.63, a pIC50 (BJ) of 4.30 and a pIC50 (Leishmania major) of 5.14. For the same compound, the selectivity ratio [3] was 5.09.

For `O=C1CS/C(=N\N=C\c2c(-c3ccc(Cl)cc3)[nH]c3ccccc23)N1`, the pIC50 (MRC5) was less than 4.30, the pIC50 (BJ) was less than 4.30 and the pIC50 (Leishmania major) was 5.15. The selectivity ratio [3] was greater than 7.13.

`CCC1S/C(=N\N=C\c2c(-c3ccc(Br)cc3)[nH]c3ccccc23)NC1=O` (stereo not given) gave a pIC50 (MRC5) of 5.23, a pIC50 (BJ) of 5.13 and a pIC50 (Leishmania major) of 4.73. It also gave a selectivity ratio [3] of 0.36.

Compound `O=C1N/C(=N/N=C/c2c(-c3ccc(Br)cc3)[nH]c3ccccc23)SC1CCO` (stereo not given) has a pIC50 (MRC5) of 4.80, a pIC50 (BJ) of 4.53 and a pIC50 (Leishmania major) of 4.89. The selectivity ratio [3] was 1.75.

Work on `C=CCSc1nn2c(/C=N/N=C3/NC(=O)C(CCOC(C)=O)S3)c(-c3ccccc3)nc2s1` (stereo not given) yielded a pIC50 (MRC5) of 4.63, a pIC50 (BJ) of 4.46 and a pIC50 (Leishmania major) of 5.01. It also gave a selectivity ratio [3] of 2.96.

Compound `O=C(CC1S/C(=N\N=C\c2c(-c3ccccc3)[nH]c3ccccc23)NC1=O)c1ccc(F)cc1` (stereo not given) has a pIC50 (MRC5) of 4.30, a pIC50 (BJ) of less than 4.30 and a pIC50 (Leishmania major) of 5.09. For the same compound, the selectivity ratio [3] was greater than 6.18.

Work on `CC(=O)OCCC1S/C(=N\N=C\c2c(-c3ccccc3)[nH]c3ccccc23)NC1=O` (stereo not given) yielded a pIC50 (MRC5) of 4.37, a pIC50 (BJ) of 4.43 and a pIC50 (Leishmania major) of 5.45. It also gave a selectivity ratio [3] of 11.3.

Compound `CC1S/C(=N\N=C\c2c(-c3ccc(Br)cc3)[nH]c3ccccc23)NC1=O` (stereo not given) has a pIC50 (MRC5) of less than 4.30, a pIC50 (BJ) of less than 4.30 and a pIC50 (Leishmania major) of 4.73. For the same compound, the selectivity ratio [3] was greater than 2.7.

In the case of `C=CCSc1nn2c(C=O)c(-c3ccccc3)nc2s1`, the pIC50 [1] was 5.63, the pIC50 (MRC5) was 4.45 and the pIC50 (BJ) was less than 4.30. For the same compound, the pIC50 (Leishmania major) was 5.05 and the selectivity ratio [3] was greater than 4.78.

With `O=C1N/C(=N/N=C/c2c(-c3ccc(Cl)cc3)[nH]c3ccccc23)SC1CCO` (stereo not given) the pIC50 (MRC5) was 4.88, the pIC50 (BJ) was 4.65 and the pIC50 (Leishmania major) was 4.80. For the same compound, the selectivity ratio [3] was 1.13.

In the case of `CCC1S/C(=N\N=C\c2c(-c3ccc([N+](=O)[O-])cc3)[nH]c3ccccc23)NC1=O` (stereo not given), the pIC50 (MRC5) was 4.60, the pIC50 (BJ) was 4.53 and the pIC50 (Leishmania major) was 4.83. For the same compound, the selectivity ratio [3] was 1.87.

In the case of `CCC1S/C(=N\N=C\c2c(-c3ccccc3)[nH]c3ccccc23)NC1=O` (stereo not given), the pIC50 (MRC5) was less than 4.30, the pIC50 (BJ) was less than 4.30 and the pIC50 (Leishmania major) was 5.95. The selectivity ratio [3] was greater than 44.6.

Work on `O=C1CS/C(=N\N=C\c2c(-c3ccccc3)[nH]c3ccccc23)N1` yielded a pIC50 (MRC5) of less than 4.30, a pIC50 (BJ) of less than 4.30 and a pIC50 (Leishmania major) of 5.76. The selectivity ratio [3] was greater than 29.1.

Compound `CC1S/C(=N\N=C\c2c(-c3ccccc3)[nH]c3ccccc23)NC1=O` (stereo not given) has a pIC50 (MRC5) of less than 4.30, a pIC50 (BJ) of less than 4.30 and a pIC50 (Leishmania major) of 6.00. It also gave a selectivity ratio [3] greater than 48.1.

Work on `CCOC(=O)c1sc(N/N=C/c2c(-c3ccc(Cl)cc3)[nH]c3ccccc23)nc1C` yielded a pIC50 (MRC5) of 4.60, a pIC50 (BJ) of less than 4.30 and a pIC50 (Leishmania major) of 4.92. It also gave a selectivity ratio [3] greater than 2.49.

Work on `CCOC(=O)C(Cc1ccccc1)N1C(=O)/C(=C/Nc2ncc(Cc3ccc(Cl)cc3Cl)s2)SC1=S` (stereo not given) yielded a pIC50 [1] of 5.73, a pIC50 (MRC5) of less than 4.30 and a pIC50 [2] of 5.63. It also gave a pIC50 (BJ) of less than 4.30, a pIC50 (Leishmania major) of 4.82 and a selectivity ratio [3] greater than 3.3.

For `C[C@@H]1CC[C@@H]2[C@@H](C1)c1sc(=O)n(CC(=O)Nc3ccccc3)c1SC2(C)C`, the pIC50 (MRC5) was less than 4.30, the pIC50 [2] was 4.99 and the pIC50 (BJ) was less than 4.30. It also gave a pIC50 (Leishmania major) of 5.06 and a selectivity ratio [3] greater than 5.76.

In the case of `O=C(CC1S\C(=N/N=C\C=C\c2ccccc2)N(Cc2ccco2)C1=O)Nc1cccc(C(F)(F)F)c1` (stereo not given), the pIC50 [1] was less than 4.30, the pIC50 (MRC5) was 4.92 and the pIC50 [2] was less than 4.30. The pIC50 (BJ) was 4.81, the pIC50 (Leishmania major) was 4.74 and the selectivity ratio [3] was 0.75.

`O=C1CS/C(=N/N=C/c2c(-c3ccc(Cl)cc3)[nH]c3ccccc23)N1Cc1ccco1` gave a pIC50 [1] of 5.14, a pIC50 (MRC5) of 4.97 and a pIC50 (BJ) of 5.09. The pIC50 (Leishmania major) was 4.90 and the selectivity ratio [3] was 0.75.

`C[C@@H]1CC[C@@H]2[C@@H](C1)c1sc(=O)n(CC(=O)Nc3ccc(S(N)(=O)=O)cc3)c1SC2(C)C` gave a pIC50 (MRC5) of less than 4.30, a pIC50 [2] of 4.85 and a pIC50 (BJ) of less than 4.30. The pIC50 (Leishmania major) was 4.70 and the selectivity ratio [3] was greater than 2.53.

`C[C@@H]1CC[C@@H]2[C@@H](C1)c1sc(=O)n(CC(=O)Nc3ccccc3C(F)(F)F)c1SC2(C)C` gave a pIC50 (MRC5) of less than 4.30, a pIC50 [2] of 5.07 and a pIC50 (BJ) of less than 4.30. It also gave a pIC50 (Leishmania major) of 4.75 and a selectivity ratio [3] greater than 2.78.

Work on `C=CCN1C(=O)C(CC(=O)c2ccc(F)cc2)S/C1=N\N=C1\CC2CCC1(C)C2(C)C` (stereo not given) yielded a pIC50 [1] of less than 4.30, a pIC50 (MRC5) of less than 4.30 and a pIC50 [2] of less than 4.30. For the same compound, the pIC50 (BJ) was less than 4.30, the pIC50 (Leishmania major) was 4.82 and the selectivity ratio [3] was greater than 3.28.

`C[C@@H]1CC[C@@H]2[C@@H](C1)c1sc(=O)n(CCC#N)c1SC2(C)C` showed a pIC50 (MRC5) of less than 4.30, a pIC50 (BJ) of less than 4.30 and a pIC50 (Leishmania major) of 4.83. The selectivity ratio [3] was greater than 3.38.

In the case of `CCOC(=O)C(Cc1ccccc1)N1C(=O)/C(=C/Nc2nccs2)SC1=S` (stereo not given), the pIC50 [1] was 4.87, the pIC50 (MRC5) was less than 4.30 and the pIC50 [2] was 5.02. It also gave a pIC50 (BJ) of less than 4.30, a pIC50 (Leishmania major) of 4.54 and a selectivity ratio [3] greater than 1.73.

With `CCc1nn2c(C=O)c(-c3ccc([N+](=O)[O-])cc3)nc2s1` the pIC50 (MRC5) was less than 4.30, the pIC50 (BJ) was less than 4.30 and the pIC50 (Leishmania major) was 4.52. The selectivity ratio [3] was greater than 1.65.

Compound `C[C@@H]1CC[C@@H]2[C@@H](C1)c1sc(=O)n(CC(=O)Nc3cccc(C(F)(F)F)c3)c1SC2(C)C` has a pIC50 (MRC5) of less than 4.30, a pIC50 [2] of 5.53 and a pIC50 (BJ) of less than 4.30. For the same compound, the pIC50 (Leishmania major) was 4.84 and the selectivity ratio [3] was greater than 3.47.

Work on `C[C@@H]1[C@H](O)[C@@H](C)/C=C/C=C/C=C/C=C/C=C/C=C/C=C/[C@H](O[C@@H]2O[C@H](C)[C@@H](O)[C@H](N)[C@@H]2O)C[C@@H]2O[C@](O)(C[C@@H](O)C[C@@H](O)[C@H](O)CC[C@@H](O)C[C@@H](O)CC(=O)O[C@H]1C)C[C@H](O)[C@H]2C(=O)O` [AMPHOTERICIN B] yielded a pIC50 (MRC5) of less than 4.30, a pIC50 (BJ) of less than 4.30 and a pIC50 (Leishmania major) of 6.30. For the same compound, the selectivity ratio [3] was greater than 100.

`CCCCCCCCCCCCCCCCOP(=O)([O-])OCC[N+](C)(C)C` [MILTEFOSINE] showed a pIC50 (MRC5) of less than 4.30, a pIC50 (BJ) of less than 4.30 and a pIC50 (Leishmania major) of 5.09. The selectivity ratio [3] was greater than 6.11.
